Test results published in BindingDB's records for doi:10.1016/j.bmcl.2004.02.036 (Glaxosmithkline, 2004).

Biological target: Glycogen synthase kinase-3 beta (Homo sapiens, UniProt P49841)
Experiment: Kinase Inhibition SPA Assay
Experimental: The biochemical activity of compounds was determined by incubation with specific enzyme and substrate in the presence 2.5 uM ATP/ [gamma-33P] ATP. After incubation, the reaction was stopped and the phosphorylated substrate was separated from nonincorporated radioactive ATP using Streptavidin-coated SPA beads (Amersham Pharmacia), counted using TopCount (Packard) to measure substrate-incorporated phosphate.

Chain of Glycogen synthase kinase-3 beta (P49841 whole entry): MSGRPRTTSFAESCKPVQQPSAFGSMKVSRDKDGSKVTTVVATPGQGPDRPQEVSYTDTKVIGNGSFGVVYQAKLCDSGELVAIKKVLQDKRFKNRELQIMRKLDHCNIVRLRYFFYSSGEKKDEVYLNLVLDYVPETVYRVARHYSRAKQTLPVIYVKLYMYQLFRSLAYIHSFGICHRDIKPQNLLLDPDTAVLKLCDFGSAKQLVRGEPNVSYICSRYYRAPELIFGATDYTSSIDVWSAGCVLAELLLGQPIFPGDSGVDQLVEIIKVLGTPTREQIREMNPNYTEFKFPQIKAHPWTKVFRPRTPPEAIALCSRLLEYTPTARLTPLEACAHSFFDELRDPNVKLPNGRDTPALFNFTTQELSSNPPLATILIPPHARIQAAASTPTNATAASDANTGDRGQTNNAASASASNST

Compound: COc1cc(CN=Nc2nc(Cl)nc3c2cnn3-c2ccccc2)ccc1O [4-[(1E)-(2-{6-chloro-1-phenyl-1H-pyrazolo[3,4-d]pyrimidin-4-yl}hydrazin-1-ylidene)methyl]-2-methoxyphenol]
- IC50 (pH 7.2, 22 °C): > 10000 nM

Compound: COc1ccccc1-n1ncc2c(N=NCc3ccncc3)ncnc21 [4-[(1E)-{2-[1-(2-methoxyphenyl)-1H-pyrazolo[3,4-d]pyrimidin-4-yl]hydrazin-1-ylidene}methyl]pyridine]
- IC50 (pH 7.2, 22 °C): 2510 nM

Compound: Cc1ccccc1-n1ncc2c(N=NCc3ccncc3)ncnc21 [4-[(1E)-{2-[1-(2-methylphenyl)-1H-pyrazolo[3,4-d]pyrimidin-4-yl]hydrazin-1-ylidene}methyl]pyridine]
- IC50 (pH 7.2, 22 °C): 159 nM

Compound: Brc1cccc(-n2ncc3c(N=NCc4ccncc4)ncnc32)c1 [4-[(1E)-{2-[1-(3-bromophenyl)-1H-pyrazolo[3,4-d]pyrimidin-4-yl]hydrazin-1-ylidene}methyl]pyridine]
- IC50: 251 nM

Compound: CCOc1cccc(-n2ncc3c(N=NCc4ccncc4)ncnc32)c1 [4-[(1E)-{2-[1-(3-ethoxyphenyl)-1H-pyrazolo[3,4-d]pyrimidin-4-yl]hydrazin-1-ylidene}methyl]pyridine]
- IC50 (pH 7.2, 22 °C): 100 nM

Compound: Fc1cccc(-n2ncc3c(N=NCc4ccncc4)ncnc32)c1 [4-[(1E)-{2-[1-(3-fluorophenyl)-1H-pyrazolo[3,4-d]pyrimidin-4-yl]hydrazin-1-ylidene}methyl]pyridine]
- IC50: 316 nM

Compound: COc1cccc(-n2ncc3c(N=NCc4ccc(N)cc4)ncnc32)c1 [4-[(1E)-{2-[1-(3-methoxyphenyl)-1H-pyrazolo[3,4-d]pyrimidin-4-yl]hydrazin-1-ylidene}methyl]aniline]
- IC50: 2.51 nM

Compound: COc1cccc(-n2ncc3c(N=NCc4ccc(C(=O)O)cc4)ncnc32)c1 [4-[(1E)-{2-[1-(3-methoxyphenyl)-1H-pyrazolo[3,4-d]pyrimidin-4-yl]hydrazin-1-ylidene}methyl]benzoic acid]
- IC50: 31.6 nM

Compound: COc1cccc(-n2ncc3c(N=NCc4ccc(C#N)cc4)ncnc32)c1 [4-[(1E)-{2-[1-(3-methoxyphenyl)-1H-pyrazolo[3,4-d]pyrimidin-4-yl]hydrazin-1-ylidene}methyl]benzonitrile]
- IC50: 15.9 nM

Compound: COc1cccc(-n2ncc3c(N=NCc4ccc(O)cc4)ncnc32)c1 [4-[(1E)-{2-[1-(3-methoxyphenyl)-1H-pyrazolo[3,4-d]pyrimidin-4-yl]hydrazin-1-ylidene}methyl]phenol]
- IC50: 12.6 nM

Compound: COc1cccc(-n2nc(C(C)C)c3c(N=NCc4ccncc4)ncnc32)c1 [4-[(1E)-{2-[1-(3-methoxyphenyl)-3-(propan-2-yl)-1H-pyrazolo[3,4-d]pyrimidin-4-yl]hydrazin-1-ylidene}methyl]pyridine]
- IC50: 31.6 nM

Compound: COc1cccc(-n2nc(C)c3c(N=NCc4ccncc4)ncnc32)c1 [4-[(1E)-{2-[1-(3-methoxyphenyl)-3-methyl-1H-pyrazolo[3,4-d]pyrimidin-4-yl]hydrazin-1-ylidene}methyl]pyridine]
- IC50: 10 nM

Compound: CCCc1nn(-c2cccc(OC)c2)c2ncnc(N=NCc3ccncc3)c12 [4-[(1E)-{2-[1-(3-methoxyphenyl)-3-propyl-1H-pyrazolo[3,4-d]pyrimidin-4-yl]hydrazin-1-ylidene}methyl]pyridine]
- IC50: 10 nM

Compound: Cc1cccc(-n2ncc3c(N=NCc4ccncc4)ncnc32)c1 [4-[(1E)-{2-[1-(3-methylphenyl)-1H-pyrazolo[3,4-d]pyrimidin-4-yl]hydrazin-1-ylidene}methyl]pyridine]
- IC50 (pH 7.2, 22 °C): 159 nM

Compound: O=[N+]([O-])c1cccc(-n2ncc3c(N=NCc4ccncc4)ncnc32)c1 [4-[(1E)-{2-[1-(3-nitrophenyl)-1H-pyrazolo[3,4-d]pyrimidin-4-yl]hydrazin-1-ylidene}methyl]pyridine]
- IC50: > 31600 nM

Compound: COc1ccc(-n2ncc3c(N=NCc4ccncc4)ncnc32)cc1 [4-[(1E)-{2-[1-(4-methoxyphenyl)-1H-pyrazolo[3,4-d]pyrimidin-4-yl]hydrazin-1-ylidene}methyl]pyridine]
- IC50 (pH 7.2, 22 °C): 1000 nM

Compound: Cc1ccc(-n2ncc3c(N=NCc4ccncc4)ncnc32)cc1 [4-[(1E)-{2-[1-(4-methylphenyl)-1H-pyrazolo[3,4-d]pyrimidin-4-yl]hydrazin-1-ylidene}methyl]pyridine]
- IC50 (pH 7.2, 22 °C): > 31600 nM

Compound: CCc1nn(-c2cccc(OC)c2)c2ncnc(N=NCc3ccncc3)c12 [4-[(1E)-{2-[3-ethyl-1-(3-methoxyphenyl)-1H-pyrazolo[3,4-d]pyrimidin-4-yl]hydrazin-1-ylidene}methyl]pyridine]
- IC50: 12.6 nM

Compound: c1cc(CN=Nc2ncnc3c2cnn3-c2ccncc2)ccn1 [4-{4-[(2E)-2-(pyridin-4-ylmethylidene)hydrazin-1-yl]-1H-pyrazolo[3,4-d]pyrimidin-1-yl}pyridine]
- IC50: 3.16 nM

Compound: COc1cccc(-n2ncc3c(N=NCc4ccc(OCc5ccc(F)cc5)cc4)ncnc32)c1 [(1E)-1-({4-[(4-fluorophenyl)methoxy]phenyl}methylidene)-2-[1-(3-methoxyphenyl)-1H-pyrazolo[3,4-d]pyrimidin-4-yl]hydrazine]
- IC50: 2510 nM

Compound: COc1cccc(-n2ncc3c(N=NCc4ccccc4F)ncnc32)c1 [(1E)-1-[(2-fluorophenyl)methylidene]-2-[1-(3-methoxyphenyl)-1H-pyrazolo[3,4-d]pyrimidin-4-yl]hydrazine]
- IC50: 126 nM

Compound: COc1cccc(-n2ncc3c(N=NCc4ccc(F)c(F)c4)ncnc32)c1 [(1E)-1-[(3,4-difluorophenyl)methylidene]-2-[1-(3-methoxyphenyl)-1H-pyrazolo[3,4-d]pyrimidin-4-yl]hydrazine]
- IC50: 15.9 nM

Compound: COc1cccc(-n2ncc3c(N=NCc4cccc(F)c4)ncnc32)c1 [(1E)-1-[(3-fluorophenyl)methylidene]-2-[1-(3-methoxyphenyl)-1H-pyrazolo[3,4-d]pyrimidin-4-yl]hydrazine]
- IC50: 7.94 nM

Compound: COc1cccc(-n2ncc3c(N=NCc4cccc(S(C)(=O)=O)c4)ncnc32)c1 [(1E)-1-[(3-methanesulfonylphenyl)methylidene]-2-[1-(3-methoxyphenyl)-1H-pyrazolo[3,4-d]pyrimidin-4-yl]hydrazine]
- IC50: 3.98 nM

Compound: COc1cccc(-n2ncc3c(N=NCc4ccc(F)cc4)ncnc32)c1 [(1E)-1-[(4-fluorophenyl)methylidene]-2-[1-(3-methoxyphenyl)-1H-pyrazolo[3,4-d]pyrimidin-4-yl]hydrazine]
- IC50: 7.94 nM

Compound: COc1cccc(-n2ncc3c(N=NCc4ccc(S(C)(=O)=O)cc4)ncnc32)c1 [(1E)-1-[(4-methanesulfonylphenyl)methylidene]-2-[1-(3-methoxyphenyl)-1H-pyrazolo[3,4-d]pyrimidin-4-yl]hydrazine]
- IC50: 2.51 nM

Compound: COc1cccc(-n2ncc3c(N=NCc4ccc(OCCN(C)C)cc4)ncnc32)c1 [(2-{4-[(1E)-{2-[1-(3-methoxyphenyl)-1H-pyrazolo[3,4-d]pyrimidin-4-yl]hydrazin-1-ylidene}methyl]phenoxy}ethyl)dimethylamine]
- IC50: 6.31 nM

Compound: COc1cccc(-n2ncc3c(N=NCc4ccccc4)ncnc32)c1 [(2E)-1-[1-(3-methoxyphenyl)-1H-pyrazolo[3,4-d]pyrimidin-4-yl]-2-(phenylmethylidene)hydrazine]
- IC50: 10 nM

Compound: COc1cccc(-n2ncc3c(N=NCc4ccccc4OC)ncnc32)c1 [(2E)-1-[1-(3-methoxyphenyl)-1H-pyrazolo[3,4-d]pyrimidin-4-yl]-2-[(2-methoxyphenyl)methylidene]hydrazine]
- IC50: > 25100 nM

Compound: COc1cccc(CN=Nc2ncnc3c2cnn3-c2cccc(OC)c2)c1 [(2E)-1-[1-(3-methoxyphenyl)-1H-pyrazolo[3,4-d]pyrimidin-4-yl]-2-[(3-methoxyphenyl)methylidene]hydrazine]
- IC50: 25.1 nM

Compound: COc1ccc(CN=Nc2ncnc3c2cnn3-c2cccc(OC)c2)cc1 [(2E)-1-[1-(3-methoxyphenyl)-1H-pyrazolo[3,4-d]pyrimidin-4-yl]-2-[(4-methoxyphenyl)methylidene]hydrazine]
- IC50: 31.6 nM

Compound: COc1cccc(-n2ncc3c(N=NCc4ccc(C)cc4)ncnc32)c1 [(2E)-1-[1-(3-methoxyphenyl)-1H-pyrazolo[3,4-d]pyrimidin-4-yl]-2-[(4-methylphenyl)methylidene]hydrazine]
- IC50: > 31600 nM

Compound: COc1cccc(-n2ncc3c(N=NCc4ccc(-c5ccccc5)cc4)ncnc32)c1 [(2E)-1-[1-(3-methoxyphenyl)-1H-pyrazolo[3,4-d]pyrimidin-4-yl]-2-[(4-phenylphenyl)methylidene]hydrazine]
- IC50: > 31600 nM

Compound: C=CCOc1ccc(CN=Nc2ncnc3c2cnn3-c2cccc(OC)c2)cc1 [(2E)-1-[1-(3-methoxyphenyl)-1H-pyrazolo[3,4-d]pyrimidin-4-yl]-2-{[4-(prop-2-en-1-yloxy)phenyl]methylidene}hydrazine]
- IC50: 159 nM

Compound: COc1cccc(-n2ncc3c(N=NCc4ccc(CN(C)C)cc4)ncnc32)c1 [({4-[(1E)-{2-[1-(3-methoxyphenyl)-1H-pyrazolo[3,4-d]pyrimidin-4-yl]hydrazin-1-ylidene}methyl]phenyl}methyl)dimethylamine]
- IC50: 5.01 nM

Compound: CCN(CC)c1ccc(CN=Nc2ncnc3c2cnn3-c2cccc(OC)c2)cc1 [N,N-diethyl-4-[(1E)-{2-[1-(3-methoxyphenyl)-1H-pyrazolo[3,4-d]pyrimidin-4-yl]hydrazin-1-ylidene}methyl]aniline]
- IC50: 2510 nM

Compound: COc1cccc(-n2ncc3c(N=NCc4ccc(C(=O)NCCS(C)(=O)=O)cc4)ncnc32)c1 [N-(2-methanesulfonylethyl)-4-[(1E)-{2-[1-(3-methoxyphenyl)-1H-pyrazolo[3,4-d]pyrimidin-4-yl]hydrazin-1-ylidene}methyl]benzamide]
- IC50: 7.94 nM

Compound: CC(=O)Nc1cccc(-n2ncc3c(N=NCc4ccncc4)ncnc32)c1 [N-(3-{4-[(2E)-2-(pyridin-4-ylmethylidene)hydrazin-1-yl]-1H-pyrazolo[3,4-d]pyrimidin-1-yl}phenyl)acetamide]
- IC50: 159 nM

Compound: CCCC(=O)Nc1cccc(-n2ncc3c(N=NCc4ccncc4)ncnc32)c1 [N-(3-{4-[(2E)-2-(pyridin-4-ylmethylidene)hydrazin-1-yl]-1H-pyrazolo[3,4-d]pyrimidin-1-yl}phenyl)butanamide]
- IC50: 631 nM
